Source: the supplement of paper PMC11061612

Legend:
Assay in all cases: Bliss excess, mean over the matrix (fraction); higher = more synergy
KP-N-YN (Neuroblastoma) = system: KP-N-YN (Neuroblastoma)
Outline: (§1)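 Cell lines grown in DMEM/F12 or RPMI with 10% FBS were plated in 1536-well plates and held 24 hours at 37°C, 5% CO2 before 72 hours of exposure to two-drug dose matrices, with DMSO typically at 0.2%. CellTiter-Glo 2.0 luminescence gave viability, which was converted to inhibition. Vehicle wells were set to 0 and blank wells to 1. Combination Emax is the second-highest inhibition in the matrix, and Bliss excess is the observed combination effect minus the expected EA + EB − EA·EB, where EA and EB are the single-agent effects.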

[1] = system: CGTH-W-1 (Thyroid Gland Carcinoma)
Outline: as §1

[2] = system: NCI-H2087 (Lung Adenocarcinoma)
Outline: as §1

HCC70 (Breast Carcinoma) = system: HCC70 (Breast Carcinoma)
Outline: as §1

[3] = system: KYSE-220 (Esophageal Squamous Cell Carcinoma)
Outline: as §1

[4] = system: SK-HEP-1 (Hepatocellular Carcinoma)
Outline: as §1

EB2 (Burkitt's Lymphoma) = system: EB2 (Burkitt's Lymphoma)
Outline: as §1

[5] = system: UACC-812 (Breast Carcinoma)
Outline: as §1

EW-7 (Ewing's Sarcoma) = system: EW-7 (Ewing's Sarcoma)
Outline: as §1

[6] = system: JHH-2 (Hepatocellular Carcinoma)
Outline: as §1

[7] = system: NCI-H1651 (Lung Adenocarcinoma)
Outline: as §1

[8] = system: NCI-H1703 (Squamous Cell Lung Carcinoma)
Outline: as §1

Row | SMILES | Bliss excess (KP-N-YN (Neuroblastoma)) | Bliss excess [1] | Bliss excess [2] | Bliss excess (HCC70 (Breast Carcinoma)) | Bliss excess [3] | Bliss excess [4] | Bliss excess (EB2 (Burkitt's Lymphoma)) | Bliss excess [5] | Bliss excess (EW-7 (Ewing's Sarcoma)) | Bliss excess [6] | Bliss excess [7] | Bliss excess [8]
1 | C[C@@H]1COCCN1c1cc(C2([S@](C)(=N)=O)CC2)nc(-c2ccnc3[nH]ccc23)n1 [AZD6738] + C1CC(C1)(C(=O)[O-])C(=O)[O-].N.N.[Pt+2] [Carboplatin] (first compound max 10 µM, 7x7, partner max 10 µM) | -0.0177 | -0.0098 | -0.0344 | -0.0305 | -0.0021 | -0.0469 | -0.0316 | -0.0423 | -0.0315 | -0.0309 | -0.0327 | -0.0312
2 | CC1(C)CCC(CN2CCN(c3ccc(C(=O)NS(=O)(=O)c4ccc(NCC5CCOCC5)c([N+](=O)[O-])c4)c(Oc4cnc5[nH]ccc5c4)c3)CC2)=C(c2ccc(Cl)cc2)C1 [Venetoclax] + CS(=O)(=O)CCNCc1ccc(-c2ccc3ncnc(Nc4ccc(OCc5cccc(F)c5)c(Cl)c4)c3c2)o1 [Lapatinib] (first compound max 1 µM, 7x7, partner max 10 µM) | -0.0157 | -0.0396 | -0.0431 | -0.0318 | -0.0233 | 0.0013 | -0.039 | 0.0062 | 0.0078 | -0.0664 | -0.0182 | 0.0019
3 | Cc1nc(-c2cn3c(n2)-c2ccc(-c4cnn(C(C)(C)C(N)=O)c4)cc2OCC3)n(C(C)C)n1 [Taselisib] + O=C(Nc1ccc2[nH]nc(-c3ccncc3)c2c1)[C@@H]1CCN(CC(=O)N2CCN(c3ccc(-c4ncccn4)cc3)CC2)C1 [SCH772984] (first compound max 10 µM, 7x7, partner max 5 µM) | 0.0278 | 0.0884 | 0.0543 | 0.0593 | 0.116 | 0.0372 | 0.0182 | 0.0095 | 0.0128 | -0.0398 | 0.0132 | -0.0292
4 | C[C@@H](Nc1cc(F)cc(F)c1)c1cc(C(=O)N(C)C)cc2c(=O)cc(N3CCOCC3)oc12 [AZD8186] + CC(=O)c1c(C)c2cnc(Nc3ccc(N4CCNCC4)cn3)nc2n(C2CCCC2)c1=O [Palbociclib] (first compound max 10 µM, 7x7, partner max 10 µM) | 0.0108 | 0.0397 | -0.0232 | 0.0225 | -0.0494 | -0.0155 | 0.0045 | 0.0506 | 0.045 | -0.0282 | -0.0192 | 0.0093
5 | O=C(c1cc(Cc2n[nH]c(=O)c3ccccc23)ccc1F)N1CCN(C(=O)C2CC2)CC1 [Olaparib] + Cc1c2c(nn1C)CSCc1cc(n(C)n1)CSc1cc(c3ccccc3c1)OCCCc1c(C(=O)O)n(C)c3c-2c(Cl)ccc13 [AZD5991] (first compound max 10 µM, 7x7, partner max 1 µM) | -0.068 | -0.045 | -0.0327 | -0.0185 | -0.0573 | -0.0101 | -0.0266 | -0.0301 | 0.015 | -0.0539 | -0.0207 | -0.0244
6 | Cc1c2c(nn1C)CSCc1cc(n(C)n1)CSc1cc(c3ccccc3c1)OCCCc1c(C(=O)O)n(C)c3c-2c(Cl)ccc13 [AZD5991] + CC(=O)O[C@H]1C(=O)[C@@]2(C)[C@H]([C@H](OC(=O)c3ccccc3)[C@]3(O)C[C@H](OC(=O)[C@H](O)[C@@H](NC(=O)c4ccccc4)c4ccccc4)C(C)=C1C3(C)C)[C@]1(OC(C)=O)CO[C@@H]1C[C@@H]2O [Paclitaxel] (first compound max 1 µM, 7x7, partner max 3 µM) | -0.0275 | 0.037 | 0.0128 | 0.0649 | -0.006 | -0.0587 | -0.083 | 0.0968 | 0.0625 | 0.017 | -0.0345 | -0.0136
7 | C[C@@H](Oc1cc(-c2cnn(C3CCNCC3)c2)cnc1N)c1c(Cl)ccc(F)c1Cl [Crizotinib] + Cn1cnc2c(F)c(Nc3ccc(Br)cc3Cl)c(C(=O)NOCCO)cc21 [Selumetinib] (first compound max 10 µM, 7x7, partner max 10 µM) | -0.105 | -0.0275 | -0.0078 | 0.0191 | 0.0436 | -0.0968 | -0.0748 | -0.0437 | -0.0101 | 0.0094 | -0.0478 | -0.0569
8 | Cc1c2c(nn1C)CSCc1cc(n(C)n1)CSc1cc(c3ccccc3c1)OCCCc1c(C(=O)O)n(C)c3c-2c(Cl)ccc13 [AZD5991] + CS(=O)(=O)CCNCc1ccc(-c2ccc3ncnc(Nc4ccc(OCc5cccc(F)c5)c(Cl)c4)c3c2)o1 [Lapatinib] (first compound max 1 µM, 7x7, partner max 10 µM) | 0.0426 | 0.0013 | 0.0165 | 0.0603 | 0.0157 | 0.0191 | -0.0287 | 0.0603 | 0.033 | -0.063 | -0.0015 | -0.0374
9 | O=C(c1cc(Cc2n[nH]c(=O)c3ccccc23)ccc1F)N1CCN(C(=O)C2CC2)CC1 [Olaparib] + CN(CC[C@H](CSC1=CC=CC=C1)NC2=C(C=C(C=C2)S(=O)(=O)NC(=O)C3=CC=C(C=C3)N4CCC(CC4)[C@H](C5=CC=CC=C5C6=CC=C(C=C6)Cl)O)S(=O)(=O)C(F)(F)F)CCO [AZD4320] (first compound max 10 µM, 7x7, partner max 1 µM) | 0.0322 | -0.0482 | -0.0215 | 0.0129 | -0.0169 | 0.0491 | -0.0537 | -0.0086 | 0.129 | -0.0363 | 0.0253 | -0.0311
